pIC50: −log10 of the molar value. In brackets after ≈: the same amount, converted by molar mass.
Experiments:
[1] = Inhibition of Staphylococcus aureus Tyrosyl-tRNA synthetase using L-[ring-3,5-3H] tyrosine as substrate after 10 min by liquid scintillation assay
Staphylococcus aureus [2] = test: Antibacterial activity against Staphylococcus aureus ATCC 6538 after 24 hr by MTT assay; assay type: functional; settings: ATCC 6538, 24 h
Staphylococcus aureus [3] = test: Antibacterial activity against Staphylococcus aureus ATCC 25923 after 24 hr by MTT assay; assay type: functional; settings: ATCC 25923, 24 h
Escherichia coli [4] = test: Antibacterial activity against Escherichia coli ATCC 8739 after 24 hr by MTT assay; assay type: functional; settings: ATCC 8739, 24 h
Escherichia coli [5] = test: Antibacterial activity against Escherichia coli ATCC 35218 after 24 hr by MTT assay; assay type: functional; settings: ATCC 35218, 24 h
Pseudomonas aeruginosa = test: Antibacterial activity against Pseudomonas aeruginosa ATCC 9027 after 24 hr by MTT assay; assay type: functional; settings: ATCC 9027, 24 h

Row | SMILES | pIC50 [1] | MIC (Staphylococcus aureus [2]) | MIC (Staphylococcus aureus [3]) | MIC (Escherichia coli [4]) | MIC (Escherichia coli [5]) | MIC (Pseudomonas aeruginosa)
1 | COc1ccc(NC(=O)CNC(=O)Cc2ccccc2)cc1 | 4.09 | > 160 µM | > 160 µM | > 160 µM | > 160 µM | > 160 µM
2 | O=C(Cc1ccccc1)NCC(=O)Nc1cccc(Cl)c1 | 3.84 | > 160 µM | > 160 µM | > 160 µM | > 160 µM | > 160 µM
3 | COc1ccc(NC(=O)CNC(=O)Cc2ccccc2)cc1OC | 3.79 | > 160 µM | > 160 µM | > 160 µM | > 160 µM | > 160 µM
4 | COc1ccc(NC(=O)CNC(=O)Cc2ccc(O)cc2)cc1 | 3.50 | > 160 µM | > 160 µM | > 160 µM | > 160 µM | > 160 µM
5 | O=C(Cc1ccc(O)cc1)NCC(=O)Nc1ccc([N+](=O)[O-])cc1 | 4.99 | 28.6 µM (≈ 9.42 µg/mL) | 34.1 µM (≈ 11.2 µg/mL) | 86.9 µM (≈ 28.6 µg/mL) | 144 µM (≈ 47.4 µg/mL) | 134 µM (≈ 44.1 µg/mL)
6 | COc1ccc(NC(=O)CNC(=O)Cc2cccc(O)c2)cc1 | 3.55 | > 160 µM | > 160 µM | > 160 µM | > 160 µM | > 160 µM
7 | O=C(Cc1cccc(O)c1)NCC(=O)Nc1ccc([N+](=O)[O-])cc1 | 5.19 | 15.2 µM (≈ 5.01 µg/mL) | 18.4 µM (≈ 6.06 µg/mL) | 47.1 µM (≈ 15.5 µg/mL) | 89.4 µM (≈ 29.4 µg/mL) | 72 µM (≈ 23.7 µg/mL)
8 | COc1ccc(NC(=O)CNC(=O)Cc2ccccc2O)cc1 | 3.32 | > 160 µM | > 160 µM | > 160 µM | > 160 µM | > 160 µM
9 | Cc1ccc(NC(=O)CNC(=O)Cc2cccc(Cl)c2)cc1 | 4.67 | 64.9 µM (≈ 20.6 µg/mL) | 91.1 µM (≈ 28.9 µg/mL) | 155 µM (≈ 49.2 µg/mL) | > 160 µM | > 160 µM
10 | Cc1ccc(CC(=O)NCC(=O)Nc2ccc([N+](=O)[O-])cc2)cc1 | 4.35 | 80.7 µM (≈ 26.4 µg/mL) | 132 µM (≈ 43.2 µg/mL) | > 160 µM | > 160 µM | > 160 µM
11 | O=C(Cc1ccccc1)NCC(=O)Nc1ccc(Br)cc1 | 4.30 | 113 µM (≈ 39.3 µg/mL) | > 160 µM | > 160 µM | > 160 µM | > 160 µM
12 | O=C(Cc1ccccc1)NCC(=O)Nc1cccc([N+](=O)[O-])c1 | 4.32 | 103 µM (≈ 32.3 µg/mL) | 156 µM (≈ 48.9 µg/mL) | > 160 µM | > 160 µM | > 160 µM
13 | O=C(Cc1ccccc1)NCC(=O)Nc1ccc([N+](=O)[O-])cc1 | 6.06 | 2.81 µM (≈ 0.88 µg/mL) | 3.67 µM (≈ 1.15 µg/mL) | 11.2 µM (≈ 3.51 µg/mL) | 15.8 µM (≈ 4.95 µg/mL) | 18.2 µM (≈ 5.7 µg/mL)
14 | O=C(Cc1ccccc1)NCC(=O)Nc1cc(F)cc(F)c1 | 4.88 | 40.5 µM (≈ 12.3 µg/mL) | 47.7 µM (≈ 14.5 µg/mL) | 120 µM (≈ 36.5 µg/mL) | > 160 µM | 148 µM (≈ 45.1 µg/mL)
15 | O=C(Cc1ccccc1)NCC(=O)Nc1ccc(Cl)cc1 | 4.78 | 49.7 µM (≈ 15 µg/mL) | 69.2 µM (≈ 21 µg/mL) | 123 µM (≈ 37.3 µg/mL) | 159 µM (≈ 48.1 µg/mL) | > 160 µM
16 | O=C(Cc1ccccc1)NCC(=O)Nc1cc(Cl)cc(Cl)c1 | 3.88 | > 160 µM | > 160 µM | > 160 µM | > 160 µM | > 160 µM
17 | O=C(Cc1ccccc1)NCC(=O)Nc1ccccc1 | 4.71 | 52.7 µM (≈ 14.1 µg/mL) | 73.5 µM (≈ 19.7 µg/mL) | 134 µM (≈ 35.9 µg/mL) | > 160 µM | > 160 µM

Row | SMILES | pIC50 [1] | MIC (Staphylococcus aureus [2]) | MIC (Staphylococcus aureus [3]) | MIC (Escherichia coli [4]) | MIC (Escherichia coli [5]) | MIC (Pseudomonas aeruginosa)
18 | O=C(Cc1ccccc1)NCC(=O)Nc1ccccc1Cl | 3.69 | > 160 µM | > 160 µM | > 160 µM | > 160 µM | > 160 µM
19 | O=C(Cc1ccc(Cl)cc1)NCC(=O)Nc1cc(Cl)cc(Cl)c1 | 3.60 | > 160 µM | > 160 µM | > 160 µM | > 160 µM | > 160 µM
20 | COc1ccc(NC(=O)CNC(=O)Cc2ccc(Cl)cc2)cc1 | 4.15 | > 160 µM | > 160 µM | > 160 µM | > 160 µM | > 160 µM
21 | COc1ccc(NC(=O)CNC(=O)Cc2cccc(Cl)c2)cc1 | 4.18 | 148 µM (≈ 49.3 µg/mL) | 148 µM (≈ 49.3 µg/mL) | > 160 µM | > 160 µM | > 160 µM
22 | O=C(Cc1cccc(Cl)c1)NCC(=O)Nc1ccc(Br)cc1 | 5.08 | 20.9 µM (≈ 7.98 µg/mL) | 24.9 µM (≈ 9.5 µg/mL) | 62.4 µM (≈ 23.8 µg/mL) | 83.4 µM (≈ 31.8 µg/mL) | 96.1 µM (≈ 36.7 µg/mL)
23 | COc1ccc(NC(=O)CNC(=O)Cc2ccccc2Cl)cc1 | 3.72 | > 160 µM | > 160 µM | > 160 µM | > 160 µM | > 160 µM
24 | O=C(Cc1ccccc1Cl)NCC(=O)Nc1ccc(Br)cc1 | 4.11 | 69.7 µM (≈ 26.6 µg/mL) | 103 µM (≈ 39.5 µg/mL) | > 160 µM | > 160 µM | > 160 µM
25 | O=C(Cc1ccccc1Cl)NCC(=O)Nc1ccc([N+](=O)[O-])cc1 | 5.60 | 6.51 µM (≈ 2.26 µg/mL) | 8.41 µM (≈ 2.92 µg/mL) | 13.5 µM (≈ 4.69 µg/mL) | 19.7 µM (≈ 6.85 µg/mL) | 34 µM (≈ 11.8 µg/mL)
26 | O=C(Cc1cccc(Br)c1)NCC(=O)Nc1ccc(Br)cc1 | 4.23 | 97.2 µM (≈ 41.4 µg/mL) | > 160 µM | > 160 µM | > 160 µM | > 160 µM
27 | COc1ccc(NC(=O)CNC(=O)Cc2ccc(F)cc2)cc1 | 3.95 | > 160 µM | > 160 µM | > 160 µM | > 160 µM | > 160 µM
28 | O=C(Cc1ccc(F)cc1)NCC(=O)Nc1ccc([N+](=O)[O-])cc1 | 5.28 | 14.1 µM (≈ 4.67 µg/mL) | 17 µM (≈ 5.63 µg/mL) | 42.3 µM (≈ 14 µg/mL) | 75.8 µM (≈ 25.1 µg/mL) | 65.6 µM (≈ 21.7 µg/mL)
29 | COc1ccc(NC(=O)CNC(=O)Cc2cccc(F)c2)cc1 | 4.03 | > 160 µM | > 160 µM | > 160 µM | > 160 µM | > 160 µM
30 | O=C(Cc1cccc(F)c1)NCC(=O)Nc1ccc([N+](=O)[O-])cc1 | 5.94 | 3.14 µM (≈ 1.04 µg/mL) | 4.11 µM (≈ 1.36 µg/mL) | 12.3 µM (≈ 4.08 µg/mL) | 19.6 µM (≈ 6.49 µg/mL) | 18.2 µM (≈ 6.03 µg/mL)
31 | COc1ccc(NC(=O)CNC(=O)Cc2ccc(OC)c(OC)c2)cc1 | 3.25 | > 160 µM | > 160 µM | > 160 µM | > 160 µM | > 160 µM
32 | COc1ccc(CC(=O)NCC(=O)Nc2ccc([N+](=O)[O-])cc2)cc1OC | 4.05 | > 160 µM | > 160 µM | > 160 µM | > 160 µM | > 160 µM
33 | NC[C@H]1O[C@H](O[C@H]2[C@H](O)[C@@H](O[C@H]3O[C@H](CO)[C@@H](O)[C@H](N)[C@H]3O)[C@H](N)C[C@@H]2N)[C@H](O)[C@@H](O)[C@@H]1O [KANAMYCIN] | – | – | – | 1.26 µM (≈ 0.61 µg/mL) | 4.35 µM (≈ 2.11 µg/mL) | 7.16 µM (≈ 3.47 µg/mL)
34 | CC1(C)S[C@@H]2[C@H](NC(=O)Cc3ccccc3)C(=O)N2[C@H]1C(=O)O [PENICILLIN G] | – | 7.13 µM (≈ 2.38 µg/mL) | 9.28 µM (≈ 3.1 µg/mL) | – | – | –

Reference: ChEMBL document CHEMBL3621174, “Synthesis and evaluation of new tyrosyl-tRNA synthetase inhibitors as antibacterial agents based on a N2-(arylacetyl)glycinanilide scaffold” (Eur J Med Chem, 2015)
